Laboratory results as given in the supplement of paper PMC10307832.

Columns and labels:
Experiment in all cases: relative viability (nuclei count vs DMSO), 5 days (fraction); higher = more cells survive
KN-93 + Trametinib = compound: CN(C/C=C/C1=CC=C(C=C1)Cl)CC2=CC=CC=C2N(CCO)S(=O)(=O)C3=CC=C(C=C3)OC [KN-93] + CC(=O)Nc1cccc(-n2c(=O)n(C3CC3)c(=O)c3c(Nc4ccc(I)cc4F)n(C)c(=O)c(C)c32)c1 [Trametinib] (partner 0.02 µM)
Procedure, shortened: (§1)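 Lung cancer cell lines in 1536-well plates were dosed by pin tool the day after seeding, either with one drug alone or with a fixed anchor-drug dose plus five library-drug doses (not always all listed) in √10 steps. After 5 days, cells were fixed and their nuclei stained in one step (final 0.05% Triton X-100, 1% formaldehyde, 1 ug/ml Hoechst), then counted on 4× images. Relative viability is the nuclei count in treated wells divided by that in vehicle wells. Values are medians of duplicate plates.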

KN-93 + Navitoclax = compound: CN(C/C=C/C1=CC=C(C=C1)Cl)CC2=CC=CC=C2N(CCO)S(=O)(=O)C3=CC=C(C=C3)OC [KN-93] + CC1(C)CCC(c2ccc(Cl)cc2)=C(CN2CCN(c3ccc(C(=O)NS(=O)(=O)c4ccc(N[C@H](CCN5CCOCC5)CSc5ccccc5)c(S(=O)(=O)C(F)(F)F)c4)cc3)CC2)C1 [Navitoclax] (partner 0.5 µM)
Procedure, shortened: as §1

KN-93 + Luminespib = compound: CN(C/C=C/C1=CC=C(C=C1)Cl)CC2=CC=CC=C2N(CCO)S(=O)(=O)C3=CC=C(C=C3)OC [KN-93] + CCNC(=O)c1noc(-c2cc(C(C)C)c(O)cc2O)c1-c1ccc(CN2CCOCC2)cc1 [Luminespib] (partner 0.01 µM)
Procedure, shortened: as §1

KN-93 + AZD7762 = compound: CN(C/C=C/C1=CC=C(C=C1)Cl)CC2=CC=CC=C2N(CCO)S(=O)(=O)C3=CC=C(C=C3)OC [KN-93] + NC(=O)Nc1cc(-c2cccc(F)c2)sc1C(=O)N[C@H]1CCCNC1 [AZD7762] (partner 0.2 µM)
Procedure, shortened: as §1

KN-93 + Decitabine = compound: CN(C/C=C/C1=CC=C(C=C1)Cl)CC2=CC=CC=C2N(CCO)S(=O)(=O)C3=CC=C(C=C3)OC [KN-93] + Nc1ncn([C@H]2C[C@H](O)[C@@H](CO)O2)c(=O)n1 [Decitabine] (partner 2 µM)
Procedure, shortened: as §1

| Cell Line | relative viability (KN-93 + Trametinib; first compound 0.08 µM) | relative viability (KN-93 + Trametinib; first compound 0.253 µM) | relative viability (KN-93 + Trametinib; first compound 2.53 µM) | relative viability (KN-93 + Trametinib; first compound 8 µM) | relative viability (KN-93 + Navitoclax; first compound 0.08 µM) | relative viability (KN-93 + Navitoclax; first compound 0.253 µM) | relative viability (KN-93 + Navitoclax; first compound 2.53 µM) | relative viability (KN-93 + Navitoclax; first compound 8 µM) | relative viability (KN-93 + Luminespib; first compound 0.08 µM) | relative viability (KN-93 + Luminespib; first compound 0.253 µM) | relative viability (KN-93 + Luminespib; first compound 2.53 µM) | relative viability (KN-93 + Luminespib; first compound 8 µM) | relative viability (KN-93 + AZD7762; first compound 0.08 µM) | relative viability (KN-93 + AZD7762; first compound 0.253 µM) | relative viability (KN-93 + AZD7762; first compound 2.53 µM) | relative viability (KN-93 + AZD7762; first compound 8 µM) | relative viability (KN-93 + Decitabine; first compound 0.08 µM) | relative viability (KN-93 + Decitabine; first compound 0.253 µM) | relative viability (KN-93 + Decitabine; first compound 2.53 µM) | relative viability (KN-93 + Decitabine; first compound 8 µM) |
| --- | --- | --- | --- | --- | --- | --- | --- | --- | --- | --- | --- | --- | --- | --- | --- | --- | --- | --- | --- | --- |
| NCI-H2085 | 0.508 | 0.506 | 0.575 | 0.459 | 1.04 | 1.21 | 1.23 | 0.867 | 0.441 | 0.371 | 0.441 | 0.356 | 0.883 | 1.12 | 1.06 | 0.592 | 0.581 | 0.502 | 0.516 | 0.496 |
| NCI-H2087 | 0.249 | 0.15 | 0.19 | 0.128 | 0.931 | 0.948 | 0.982 | 0.527 | 0.16 | 0.182 | 0.184 | 0.133 | 0.821 | 1.61 | 1.16 | 1.04 | 0.28 | 0.235 | 0.273 | 0.155 |
| NCI-H2126 | 0.468 | 0.453 | 0.593 | 0.466 | 0.814 | 0.785 | 0.929 | 0.809 | 1.03 | 0.984 | 0.941 | 0.708 | 0.939 | 1.01 | 1.03 | 0.974 | 0.51 | 0.522 | 0.656 | 0.475 |
| NCI-H2170 | 0.796 | 1.16 | 1.02 | 0.834 | 0.537 | 0.606 | 0.542 | 0.563 | 0.785 | 0.852 | 0.963 | 0.483 | 0.623 | 0.971 | 0.845 | 0.734 | 0.468 | 0.501 | 0.49 | 0.436 |
| NCI-H2347 | 0.28 | 0.316 | 0.282 | 0.26 | 0.696 | 0.843 | 0.794 | 0.543 | 0.618 | 0.728 | 0.458 | 0.511 | 0.621 | 0.861 | 0.885 | 0.498 | 0.57 | 0.617 | 0.643 | 0.539 |
